{"source": "paper PMC5245897", "about": "(PLoS ONE, 2017)", "origin": "cited, not measured here", "system": "GLP-1 receptor", "parameters": "method as in PMID 8396143", "conditions": "GLP-1 receptor antagonist", "data": [{"substance": "Exendin(9–39)", "values": [{"measurement": "GLP-1 receptor binding (in words)", "result": "GLP-1 receptor antagonist binding with high affinity"}]}]}
